Assay results published in paper PMC4483659, “Amino Acid-Derived Metabolites from the Ascidian Aplidium sp” (Marine Drugs, 2015).
pIC50: −log10 of the molar value. ≈ marks a conversion by molar mass, not a printed value. Read-outs that look alike come from different tables or passages of the source.

Experiments:
[1] = test system: Bacillus subtilis (ATCC 6633); test: Antibacterial assay, B. subtilis; type: cell-based
Experimental: (§1) The cytotoxicity assays were performed in accordance with the literature protocols. The Na^+/K^+-ATPase, isocitrate lyase, and sortase A inhibition assays were performed according to previously described methods. The antimicrobial assays were performed according to the method described previously.

[2] = test system: Salmonella typhimurium (ATCC 14028); test: Antibacterial assay, S. typhimurium; type: cell-based; settings: Salmonella enterica, read-out: MIC, D: Salmonella typhimurium
Experimental: as §1

[3] = test system: A549 lung cancer cell-line; test: Cytotoxicity, A549 lung cancer cell-line; type: cell-based; settings: Homo sapiens
Experimental: as §1

[4] = test system: Proteus vulgaris (ATCC 3851); test: Antibacterial assay, P. vulgaris; type: cell-based
Experimental: as §1

[5] = test system: Staphylococcus aureus (ATCC 6538p); test: Antibacterial assay, S. aureus; type: cell-based; settings: ATCC6538P, read-out: MIC, A: Staphylococcus aureus
Experimental: as §1

[6] = test system: K562 leukemia cell-line; test: Cytotoxicity, K562 leukemia cell-line; type: cell-based; settings: Homo sapiens
Experimental: as §1

[7] = test system: Micrococcus luteus (IFO 12708); test: Antibacterial assay, M. luteus; type: cell-based
Experimental: as §1

[8] = test system: MRC5 human lung fibroblast cell-line; test: Cytotoxicity, MRC5 normal cell-line; type: cell-based
Experimental: as §1

[9] = target: sortase A (Staphylococcus aureus, UniProt Q2FV99); test: Sortase A inhibition assay; type: biochemical
Experimental: as §1

[10] = target: Na^+/K^+-ATPase; test: Na+/K+-ATPase inhibition assay; type: biochemical; settings: enzyme inhibition
Experimental: as §1

[11] = test system: Escherichia coli (ATCC 35270); test: Antibacterial assay, E. coli; type: cell-based
Experimental: as §1

[12] = ATCC6633, Gram(+), ATCC 6633, read-out: MIC, B: Bacillus subtilis
[13] = A549 lung cancer cell-line cytotoxicity, read-out: IC50, A549
[14] = ATCC3851, Gram(−), ATCC 3851, read-out: MIC, E: Proteus vulgaris
[15] = K562 leukemia cell-line cytotoxicity, read-out: IC50, K562
[16] = IFO12708, Gram(+), IFO 12708, read-out: MIC, C: Micrococcus luteus
[17] = MRC5 human lung fibroblast (normal) cell-line cytotoxicity, read-out: IC50, MRC5
[18] = ATCC35270, Gram(−), ATCC 35270, read-out: MIC, F: Escherichia coli

Chain of sortase A (Q2FV99 whole entry): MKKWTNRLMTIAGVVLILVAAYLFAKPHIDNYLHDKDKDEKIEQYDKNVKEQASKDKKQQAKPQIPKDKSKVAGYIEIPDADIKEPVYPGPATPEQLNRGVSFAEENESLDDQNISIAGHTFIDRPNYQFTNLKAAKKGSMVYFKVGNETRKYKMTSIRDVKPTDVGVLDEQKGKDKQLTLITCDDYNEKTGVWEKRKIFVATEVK

`COc1c(I)cc(CCN(C)C)cc1I` [Compound 6, apliamine A] showed an MIC ([1]; ATCC6633, read-out: MIC, B: Bacillus subtilis) greater than 100 µg/mL, an MIC [2] greater than 100 µg/mL and a pIC50 ([3]; A549, read-out: IC50, A549) of 5.08. For the same compound, the MIC ([4]; ATCC3851, read-out: MIC, E: Proteus vulgaris) was greater than 100 µg/mL, the MIC [5] was greater than 100 µg/mL and the pIC50 ([6]; K562, read-out: IC50, K562) was 4.71. It also gave an MIC ([7]; IFO12708, read-out: MIC, C: Micrococcus luteus) greater than 100 µg/mL, a pIC50 ([8]; Homo sapiens, MRC5, read-out: IC50, MRC5) of less than 4.00 and a pIC50 [9] of less than 3.52. It also gave a pIC50 [10] of 3.72 and an MIC ([11]; ATCC35270, read-out: MIC, F: Escherichia coli) greater than 100 µg/mL.

For `CN(C)[C@@H](Cc1c[nH]c2cc(Br)ccc12)C(=O)NCCc1ccccc1` [Compound 5, apliamide E], the MIC [1, 12] was greater than 100 µg/mL, the MIC ([2]; Gram(−), ATCC 14028) was greater than 100 µg/mL and the pIC50 [3, 13] was 4.64. The MIC [4, 14] was greater than 100 µg/mL, the MIC ([5]; Gram(+), ATCC 6538p) was greater than 100 µg/mL and the pIC50 [6, 15] was 5.11. For the same compound, the MIC [7, 16] was greater than 100 µg/mL, the pIC50 [8, 17] was 4.43 and the pIC50 [9] was less than 3.52. It also gave a pIC50 [10] of less than 3.70 and an MIC [11, 18] greater than 100 µg/mL.

In the case of `COc1cccc2c1C(=O)c1c(O)c3c(c(O)c1C2=O)C[C@@](O)(C(=O)CO)C[C@@H]3O[C@H]1C[C@H](N)[C@H](O)[C@H](C)O1` [Doxorubicin, reference compound], the pIC50 [3, 13] was 5.85, the pIC50 [6, 15] was 5.92 and the pIC50 [8, 17] was 5.01.

For `CC1(C)S[C@@H]2[C@H](NC(=O)[C@H](N)c3ccccc3)C(=O)N2[C@H]1C(=O)O` [Ampicillin, reference compound], the MIC [1, 12] was 0.4 µg/mL (≈ 1.14 µM), the MIC ([2]; Gram(−), ATCC 14028) was 0.4 µg/mL (≈ 1.14 µM) and the MIC [4, 14] was 0.8 µg/mL (≈ 2.29 µM). It also gave an MIC ([5]; Gram(+), ATCC 6538p) of 0.4 µg/mL (≈ 1.14 µM), an MIC [7, 16] of 0.4 µg/mL (≈ 1.14 µM) and an MIC [11, 18] of 6.3 µg/mL (≈ 18 µM).

`COc1c(I)cc(/C=C/C(=O)NCCc2ccccc2)cc1I` [Compound 4, apliamide D] showed an MIC [1, 12] greater than 100 µg/mL, an MIC ([2]; Gram(−), ATCC 14028) greater than 100 µg/mL and a pIC50 [3, 13] of less than 4.00. For the same compound, the MIC [4, 14] was greater than 100 µg/mL, the MIC ([5]; Gram(+), ATCC 6538p) was greater than 100 µg/mL and the pIC50 [6, 15] was 4.74. It also gave an MIC [7, 16] greater than 100 µg/mL, a pIC50 [8, 17] of less than 4.00 and a pIC50 [9] of less than 3.52. For the same compound, the pIC50 [10] was 5.49 and the MIC [11, 18] was greater than 100 µg/mL.

Work on `COc1ccc(CCNC(=O)[C@H](Cc2cc(I)c(OC)c(I)c2)N(C)C)cc1I` [Compound 3, apliamide C] yielded an MIC [1, 12] greater than 100 µg/mL, an MIC ([2]; Gram(−), ATCC 14028) greater than 100 µg/mL and a pIC50 [3, 13] of 4.87. For the same compound, the MIC [4, 14] was greater than 100 µg/mL, the MIC ([5]; Gram(+), ATCC 6538p) was greater than 100 µg/mL and the pIC50 [6, 15] was 4.98. It also gave an MIC [7, 16] greater than 100 µg/mL, a pIC50 [8, 17] of less than 4.00 and a pIC50 [9] of less than 3.52. The pIC50 [10] was less than 3.70 and the MIC [11, 18] was greater than 100 µg/mL.

Compound `CN[C@@H](Cc1cc(I)c(OC)c(I)c1)C(=O)NCCc1ccccc1` [Compound 1, apliamide A] has an MIC [1, 12] greater than 100 µg/mL, an MIC ([2]; Gram(−), ATCC 14028) greater than 100 µg/mL and a pIC50 [3, 13] of less than 4.00. For the same compound, the MIC [4, 14] was greater than 100 µg/mL, the MIC ([5]; Gram(+), ATCC 6538p) was greater than 100 µg/mL and the pIC50 [6, 15] was 4.84. It also gave an MIC [7, 16] greater than 100 µg/mL, a pIC50 [8, 17] of 4.23 and a pIC50 [9] of less than 3.52. The pIC50 [10] was 3.79 and the MIC [11, 18] was greater than 100 µg/mL.

Work on `COc1c(I)cc(C[C@@H](C(=O)NCCc2ccccc2)N(C)C)cc1I` [Compound 2, apliamide B] yielded an MIC [1, 12] greater than 100 µg/mL, an MIC ([2]; Gram(−), ATCC 14028) greater than 100 µg/mL and a pIC50 [3, 13] of 4.97. The MIC [4, 14] was greater than 100 µg/mL, the MIC ([5]; Gram(+), ATCC 6538p) was greater than 100 µg/mL and the pIC50 [6, 15] was 4.68. For the same compound, the MIC [7, 16] was greater than 100 µg/mL, the pIC50 [8, 17] was 4.13 and the pIC50 [9] was less than 3.52. For the same compound, the pIC50 [10] was less than 3.70 and the MIC [11, 18] was greater than 100 µg/mL.

`O=C(O)c1cc[c]([Hg][OH])cc1` [pHMB, para-Hydroxymercuribenzoic acid, reference compound] showed a pIC50 ([9]; sortase A inhibition, read-out: IC50, Srt A) of 3.96.
